Source: US5482931A, “Stabilized pharmaceutical peptide compositions” (Ferring AB, priority 1993, dated 1996)

What was measured:
[1] = Adsorption of 125I-marked desmopressin to tubes of polystyrene, polypropene and glass; assay type: physicochemical; conditions: 24 h, ambient temperature
Protocol: Sterile aqueou solutions of desmopressin marked with ^125 I (appr. 10,000 CPM/ml) containing benzalkonium chloride+saline, chlorobutanol+saline, or saline only, were all incubated in tubes of polystyrene, polypropene and glass for 24 h at ambient temperature.

[2] = aqueous solution of desmopressin; cited from earlier work

- amount of desmopressin recovered from the plastic tubes ([1]; preservative-free solution (saline only), plastic tubes): about half
- adsorption of desmopressin to tubes ([1]; solution containing benzalkonium chloride + saline): insignificant adsorption
- adsorption of desmopressin to tubes ([1]; solution containing chlorobutanol + saline): insignificant adsorption
SMILES: NC(=O)CC[C@@H]1NC(=O)[C@H](Cc2ccccc2)NC(=O)[C@H](Cc2ccc(O)cc2)NC(=O)CCSSC[C@@H](C(=O)N2CCC[C@H]2C(=O)N[C@H](CCCN=C(N)N)C(=O)NCC(N)=O)NC(=O)[C@H](CC(N)=O)NC1=O [desmopressin, 1-deamino-8-D-arginine vasopressin]
- storage temperature required for the aqueous solution [2]: ≤ 8 °C
